Measurements as given in PubChem BioAssay (NCI).
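A five-concentration, 48-hour dose response in 96-well plates underlies each endpoint, interpolated linearly between surrounding concentrations. GI50: concentration for 50% inhibition of growth. At the TGI there is no net growth.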

How the values were obtained:
Experiment in all cases: inhibition of tumour cell growth, NCI panel, 48 h
[1] = tested on: 786-0 renal
[2] = tested on: A498 renal
[3] = tested on: A549 NSCLC
[4] = tested on: ACHN renal
[5] = tested on: BT-549 breast
[6] = tested on: CAKI-1 renal
[7] = tested on: CCRF-CEM leukemia
[8] = tested on: COLO 205 colon
[9] = tested on: DU-145 prostate
[10] = tested on: EKVX NSCLC
[11] = tested on: HCC-2998 colon
[12] = tested on: HCT-116 colon
[13] = tested on: HCT-15 colon
[14] = tested on: HL-60(TB) leukemia
[15] = tested on: HOP-62 NSCLC
[16] = tested on: HOP-92 NSCLC
[17] = tested on: HS 578T breast
[18] = tested on: HT29 colon
[19] = tested on: IGROV1 ovarian
[20] = tested on: K-562 leukemia
[21] = tested on: KM12 colon
[22] = tested on: LOX IMVI melanoma
[23] = tested on: M14 melanoma
[24] = tested on: MALME-3M melanoma
[25] = tested on: MCF7 breast
[26] = tested on: MDA-MB-231 breast
[27] = tested on: MDA-MB-435
[28] = tested on: MOLT-4 leukemia
[29] = tested on: NCI-H226 lung
[30] = tested on: NCI-H23 lung
[31] = tested on: NCI-H460 lung
[32] = tested on: NCI-H522 lung
[33] = tested on: NCI/ADR-RES ovarian
[34] = tested on: OVCAR-3 ovarian
[35] = tested on: OVCAR-4 ovarian
[36] = tested on: OVCAR-5 ovarian
[37] = tested on: OVCAR-8 ovarian
[38] = tested on: PC-3 prostate
[39] = tested on: RPMI-8226 leukemia
[40] = tested on: RXF 393 renal
[41] = tested on: SF-268 CNS
[42] = tested on: SF-295 CNS
[43] = tested on: SF-539 CNS
[44] = tested on: SK-MEL-2 melanoma
[45] = tested on: SK-MEL-28 melanoma
[46] = tested on: SK-MEL-5 melanoma
[47] = tested on: SK-OV-3 ovarian
[48] = tested on: SN12C renal
[49] = tested on: SNB-19 CNS
[50] = tested on: SNB-75 CNS
[51] = tested on: SR leukemia
[52] = tested on: SW-620 colon
[53] = tested on: T-47D breast
[54] = tested on: TK-10 renal
[55] = tested on: U251 CNS
[56] = tested on: UACC-257 melanoma
[57] = tested on: UACC-62 melanoma
[58] = tested on: UO-31 renal

How did the GI50 [1] turn out when `CCO/C=N/C1=C(C#N)C(c2ccc(OC)cc2)c2sc3c(C)cccc3c2O1` (stereo unspecified) was run?
The GI50 was 469 nM.

What about the TGI [1] of the same molecule?
Its TGI is over 62400 nM.

And the GI50 [2]?
Its GI50 is 291 nM.

What about the TGI [2] of the same molecule?
Its TGI is 1100 nM.

And the GI50 [3]?
The GI50 was 898 nM.

What about the TGI [3] of the same molecule?
Its TGI is over 100000 nM.

And the GI50 [4]?
The GI50 was 699 nM.

And the TGI [4]?
Its TGI is over 100000 nM.

And the GI50 [5]?
Its GI50 is 650 nM.

What about the TGI [5] of the same molecule?
The TGI was over 58500 nM.

What about the GI50 [6] of the same molecule?
Its GI50 is 321 nM.

And the TGI [6]?
Its TGI is over 100000 nM.

What about the GI50 [7] of the same molecule?
Its GI50 is 459 nM.

And the TGI [7]?
The TGI was over 100000 nM.

What about the GI50 [8] of the same molecule?
The GI50 was 818 nM.

And the TGI [8]?
Its TGI is 6690 nM.

And the GI50 [9]?
Its GI50 is 571 nM.

And the TGI [9]?
Its TGI is over 100000 nM.

And the GI50 [10]?
Its GI50 is 932 nM.

And the TGI [10]?
The TGI was over 100000 nM.

What about the GI50 [11] of the same molecule?
Its GI50 is 1070 nM.

What about the TGI [11] of the same molecule?
Its TGI is 7780 nM.

And the GI50 [12]?
Its GI50 is 402 nM.

And the TGI [12]?
The TGI was over 38400 nM.

And the GI50 [13]?
The GI50 was 447 nM.

What about the TGI [13] of the same molecule?
Its TGI is over 38100 nM.

And the GI50 [14]?
Its GI50 is 290 nM.

And the TGI [14]?
The TGI was 1730 nM.

And the GI50 [15]?
Its GI50 is 552 nM.

What about the TGI [15] of the same molecule?
The TGI was over 60300 nM.

What about the GI50 [16] of the same molecule?
The GI50 was 851 nM.

And the TGI [16]?
Its TGI is over 55200 nM.

What about the GI50 [17] of the same molecule?
The GI50 was 350 nM.

What about the TGI [17] of the same molecule?
Its TGI is over 47800 nM.

And the GI50 [18]?
Its GI50 is 1140 nM.

What about the TGI [18] of the same molecule?
Its TGI is 35500 nM.

What about the GI50 [19] of the same molecule?
The GI50 was 515 nM.

And the TGI [19]?
The TGI was over 100000 nM.

What about the GI50 [20] of the same molecule?
Its GI50 is 333 nM.

What about the TGI [20] of the same molecule?
Its TGI is over 100000 nM.

And the GI50 [21]?
The GI50 was 452 nM.

What about the TGI [21] of the same molecule?
The TGI was over 100000 nM.

What about the GI50 [22] of the same molecule?
Its GI50 is 665 nM.

What about the TGI [22] of the same molecule?
The TGI was over 40300 nM.

And the GI50 [23]?
Its GI50 is 421 nM.

What about the TGI [23] of the same molecule?
The TGI was over 45000 nM.

And the GI50 [24]?
Its GI50 is 603 nM.

And the TGI [24]?
The TGI was over 100000 nM.

And the GI50 [25]?
Its GI50 is 347 nM.

What about the TGI [25] of the same molecule?
The TGI was over 81200 nM.

And the GI50 [26]?
The GI50 was 1570 nM.

And the TGI [26]?
The TGI was over 45000 nM.

And the GI50 [27]?
Its GI50 is 243 nM.

What about the TGI [27] of the same molecule?
The TGI was 677 nM.

And the GI50 [28]?
Its GI50 is 540 nM.

And the TGI [28]?
The TGI was over 24300 nM.

And the GI50 [29]?
The GI50 was 457 nM.

What about the TGI [29] of the same molecule?
The TGI was over 30700 nM.

And the GI50 [30]?
The GI50 was 545 nM.

And the TGI [30]?
The TGI was over 100000 nM.

What about the GI50 [31] of the same molecule?
The GI50 was 407 nM.

And the TGI [31]?
The TGI was over 100000 nM.

And the GI50 [32]?
The GI50 was 426 nM.

What about the TGI [32] of the same molecule?
Its TGI is 10000 nM.

And the GI50 [33]?
Its GI50 is 444 nM.

And the TGI [33]?
Its TGI is over 100000 nM.

What about the GI50 [34] of the same molecule?
Its GI50 is 394 nM.

And the TGI [34]?
The TGI was over 100000 nM.

And the GI50 [35]?
The GI50 was 1480 nM.

What about the TGI [35] of the same molecule?
The TGI was over 100000 nM.

What about the GI50 [36] of the same molecule?
Its GI50 is 3160 nM.

And the TGI [36]?
The TGI was over 100000 nM.

And the GI50 [37]?
The GI50 was 716 nM.

What about the TGI [37] of the same molecule?
The TGI was over 100000 nM.

And the GI50 [38]?
The GI50 was 494 nM.

What about the TGI [38] of the same molecule?
The TGI was over 100000 nM.

And the GI50 [39]?
The GI50 was 417 nM.

And the TGI [39]?
The TGI was 15100 nM.

What about the GI50 [40] of the same molecule?
The GI50 was 233 nM.

And the TGI [40]?
Its TGI is 707 nM.

What about the GI50 [41] of the same molecule?
Its GI50 is 766 nM.

What about the TGI [41] of the same molecule?
The TGI was over 100000 nM.

What about the GI50 [42] of the same molecule?
The GI50 was 362 nM.

And the TGI [42]?
Its TGI is over 37800 nM.

What about the GI50 [43] of the same molecule?
The GI50 was 316 nM.

And the TGI [43]?
Its TGI is 1910 nM.

And the GI50 [44]?
The GI50 was 1140 nM.

And the TGI [44]?
Its TGI is over 100000 nM.

What about the GI50 [45] of the same molecule?
Its GI50 is 3420 nM.

And the TGI [45]?
Its TGI is over 100000 nM.

What about the GI50 [46] of the same molecule?
The GI50 was 500 nM.

And the TGI [46]?
Its TGI is over 46500 nM.

And the GI50 [47]?
The GI50 was 794 nM.

And the TGI [47]?
Its TGI is over 100000 nM.

And the GI50 [48]?
Its GI50 is 831 nM.

What about the TGI [48] of the same molecule?
Its TGI is over 52300 nM.

And the GI50 [49]?
The GI50 was 518 nM.

And the TGI [49]?
The TGI was over 100000 nM.

What about the GI50 [50] of the same molecule?
Its GI50 is 203 nM.

What about the TGI [50] of the same molecule?
The TGI was 774 nM.

What about the GI50 [51] of the same molecule?
The GI50 was 376 nM.

And the TGI [51]?
The TGI was 7840 nM.

And the GI50 [52]?
The GI50 was 527 nM.

What about the TGI [52] of the same molecule?
The TGI was over 100000 nM.

What about the GI50 [53] of the same molecule?
Its GI50 is 561 nM.

What about the TGI [53] of the same molecule?
The TGI was over 100000 nM.

What about the GI50 [54] of the same molecule?
Its GI50 is 22700 nM.

What about the TGI [54] of the same molecule?
The TGI was over 100000 nM.

And the GI50 [55]?
Its GI50 is 510 nM.

And the TGI [55]?
Its TGI is over 39500 nM.

And the GI50 [56]?
Its GI50 is over 43500 nM.

What about the TGI [56] of the same molecule?
The TGI was over 100000 nM.

What about the GI50 [57] of the same molecule?
The GI50 was 514 nM.

And the TGI [57]?
Its TGI is over 100000 nM.

And the GI50 [58]?
Its GI50 is 562 nM.

And the TGI [58]?
The TGI was over 100000 nM.
